Source: patent US20140011682A1, “USE OF OPEN-CHAIN CARBOXYLIC ACIDS, CARBONIC ESTERS, CARBOXAMIDES AND CARBONITRILES OF ARYL, HETEROARYL AND BENZYLSULFONAMIDE OR THE SALTS THEREOF FOR IMPROVING THE STRESS TOLERANCE IN PLANTS” (BAYER INTELLECTUAL PROPERTY GMBH, priority 2010, published 2014)

Legend:
Format in all cases: in vivo
Settings in all cases: mean of three results
BRSNS=Brassica napus = test: Drought stress test on crop plants in the greenhouse, spray application, Brassica napus
Experimental: (§1) Seeds of monocotyledonous and dicotyledonous crop plants were placed in sandy loam in wood-fiber pots, covered with soil and cultivated in a greenhouse under good growth conditions. The test plants were treated at the early leaf stage (BBCH10 BBCH13). To ensure uniform water supply before commencement of stress, the potted plants were supplied with the maximum amount of water immediately beforehand by dam irrigation and, after application, transferred in plastic inserts in order to prevent subsequent, excessively rapid drying. The inventive compounds, formulated in the form of wettable powders (WP), wettable granules (WG), suspension concentrates (SC) or emulsion concentrates (EC), were sprayed onto the green parts of the plants as an aqueous suspension at an equivalent water application rate of 600 l/ha with addition of 0.2% wetting agent (agrotin). Substance application is followed immediately by stress treatment of the plants (cold or drought stress). For cold stress treatment, the plants were kept under the following controlled conditions:
(§2) Drought stress was induced by gradual drying out under the following conditions:
(§3) “day”: 14 hours with illumination at 26° C.
(§4) “night”: 10 hours without illumination at 18° C.
(§5) The duration of the respective stress phases was guided mainly by the state of the untreated, stressed control plants and thus varied from crop to crop. It was ended (by re-irrigating or transferring it to a greenhouse with good growth conditions) as soon as irreversible damage was observed on the untreated, stressed control plants. In the case of dicotyledonous crops, for example oilseed rape and soybeans, the duration of the drought stress phase varied between 3 and 5 days, in the case of monocotyledonous crops, for example wheat, barley or corn, between 6 and 10 days. The duration of the cold stress phase varied between 12 and 14 days. The end of the stress phase was followed by an approx. 5-7-day recovery phase, during which the plants were once again kept under good growth conditions in a greenhouse. In order to rule out any influence of the effects observed by any fungicidal action of the test compounds, it is additionally ensured that the tests proceed without fungal infection and without infection pressure.
(§6) After the recovery phase had ended, the intensities of damage were rated in visual comparison to untreated, unstressed controls of the same age (in the case of drought stress) or the same growth stage (in the case of cold stress). The intensity of damage was first assessed as a percentage (100%=plants have died, 0%=like control plants). These values were then used to calculate the efficacy of the test compounds (=percentage reduction in the intensity of damage as a result of substance application) by the following formula: […]
(§7) DVus: damage value of the untreated, stressed control
(§8) DVts: damage value of the plants treated with test compound
(§9) The tables below list mean values in each case from three results of the same test.

ZEAMX=Zea mays = test: Drought stress test on crop plants in the greenhouse, spray application, Zea mays
Experimental: as §1, §2, §3, §4, §5, §6, §7, §8, §9

TRZAS=Triticum aestivum = test: Drought stress test on crop plants in the greenhouse, spray application, Triticum aestivum
Experimental: as §1, §2, §3, §4, §5, §6, §7, §8, §9

Row | Structure (SMILES) | EF (BRSNS): Efficacy = percentage reduction in the intensity of damage (BRSNS=Brassica napus; dosage 250 g/ha) [%] | EF (TRZAS) Efficacy (TRZAS=Triticum aestivum; dosage 250 g/ha) [%] | EF (TRZAS) Efficacy (TRZAS=Triticum aestivum; dosage 25 g/ha) [%] | also measured
1 | CC(C)CC(C)(C#N)NS(=O)(=O)c1ccc(Br)cc1 (centres unmarked) [I.1-14] |  |  |  | EF (BRSNS): Efficacy = percentage reduction in the intensity of damage (BRSNS=Brassica napus; dosage 25 g/ha): >5%; EF (ZEAMX): Efficacy = percentage reduction in the intensity of damage (ZEAMX=Zea mays; dosage 250 g/ha): >5%
2 | CCOC(=O)CC(NS(=O)(=O)c1ccc(Br)cc1)C(C)C (centres unmarked) [I.1-28] |  |  |  | EF (BRSNS): Efficacy = percentage reduction in the intensity of damage (BRSNS=Brassica napus; dosage 2.5 g/ha): >5%
3 | COC(=O)CC(NS(=O)(=O)c1ccc(Br)cc1)C(C)C (centres unmarked) [I.1-29, Methyl 3-{[(4-bromophenyl)sulfonyl]amino}-4-methylpentanoate] | >5 |  |  | EF (ZEAMX): Efficacy = percentage reduction in the intensity of damage (ZEAMX=Zea mays; dosage 250 g/ha): >5%
4 | CCOC(=O)CC(NS(=O)(=O)c1ccc(Br)cc1)c1ccccc1Cl (centres unmarked) [I.1-33] |  | >5 |  | EF (BRSNS): Efficacy = percentage reduction in the intensity of damage (BRSNS=Brassica napus; dosage 25 g/ha): >5%
5 | COC(=O)CC(NS(=O)(=O)c1ccc(Br)cc1)c1ccc(Br)cc1 (centres unmarked) [I.1-35] |  |  | >5 | EF (BRSNS): Efficacy = percentage reduction in the intensity of damage (BRSNS=Brassica napus; dosage 2.5 g/ha): >5%
6 | COC(=O)CC(NS(=O)(=O)c1ccc(Br)cc1)C(=O)OC (centres unmarked) [I.1-63] | >5 |  | >5 | 
7 | COC(=O)C(CC(C)C)NS(=O)(=O)c1ccc(Br)cc1 (centres unmarked) [I.1-77] | >5 |  |  | 
8 | CCOC(=O)CC(NS(=O)(=O)c1ccc(Br)cc1)C(F)(F)F (centres unmarked) [I.1-103] | >5 |  | >5 | 
9 | CCOC(=O)CC(CC(C)C)NS(=O)(=O)c1cccc2ccccc12 (centres unmarked) [I.2-62] |  | >5 |  | EF (ZEAMX): Efficacy = percentage reduction in the intensity of damage (ZEAMX=Zea mays; dosage 25 g/ha): >5%
10 | COC(=O)C(Cc1cn(C)cn1)NS(=O)(=O)c1cccc2ccccc12 (centres unmarked) [I.2-74] | >5 |  | >5 | 
11 | COC(=O)C(NS(=O)(=O)c1cccc2ccccc12)C(C)C (centres unmarked) [I.2-75] |  |  | >5 | EF (BRSNS): Efficacy = percentage reduction in the intensity of damage (BRSNS=Brassica napus; dosage 25 g/ha): >5%; EF (ZEAMX): Efficacy = percentage reduction in the intensity of damage (ZEAMX=Zea mays; dosage 250 g/ha): >5%
12 | COC(=O)C(CC(C)C)NS(=O)(=O)c1cccc2ccccc12 (centres unmarked) [I.2-77] |  | >5 |  | EF (BRSNS): Efficacy = percentage reduction in the intensity of damage (BRSNS=Brassica napus; dosage 2.5 g/ha): >5%
13 | C#CCC(NS(=O)(=O)c1cccc2ccccc12)C(=O)OC (centres unmarked) [I.2-86] | >5 | >5 |  | 
14 | CCOC(=O)CC(NS(=O)(=O)c1ccc(Br)c2ccccc12)C(C)C (centres unmarked) [I.3-28] | >5 | >5 |  | 
15 | CC(C)(C)OC(=O)CCCNS(=O)(=O)c1ccc(Br)c2ccccc12 [I.3-70] |  |  |  | EF (BRSNS): Efficacy = percentage reduction in the intensity of damage (BRSNS=Brassica napus; dosage 2.5 g/ha): >5%
16 | COC(=O)C(NS(=O)(=O)c1ccc(Br)c2ccccc12)C(C)C (centres unmarked) [I.3-75] | >5 |  | >5 | 
17 | COC(=O)C(Cc1ccc(F)cc1)NS(=O)(=O)c1ccc(Br)c2ccccc12 (centres unmarked) [I.3-90] |  |  | >5 | EF (BRSNS): Efficacy = percentage reduction in the intensity of damage (BRSNS=Brassica napus; dosage 25 g/ha): >5%
18 | CCOC(=O)CC(NS(=O)(=O)c1ccc(Br)c2ccccc12)C(F)(F)F (centres unmarked) [I.3-103] |  |  | >5 | EF (BRSNS): Efficacy = percentage reduction in the intensity of damage (BRSNS=Brassica napus; dosage 25 g/ha): >5%
19 | COC(=O)C(Cc1c[nH]cn1)NS(=O)(=O)c1ccc(Br)c2ccccc12 (centres unmarked) [I.3-106] |  | >5 |  | EF (BRSNS): Efficacy = percentage reduction in the intensity of damage (BRSNS=Brassica napus; dosage 25 g/ha): >5%
20 | CCOC(=O)CC(NS(=O)(=O)c1ccc(OC)cc1)C(C)C (centres unmarked) [I.37-28] | >5 | >5 |  | 
21 | CCCC(NS(=O)(=O)c1ccc(OC)cc1)C(=O)OC (centres unmarked) [I.37-73] |  | >5 |  | EF (BRSNS): Efficacy = percentage reduction in the intensity of damage (BRSNS=Brassica napus; dosage 25 g/ha): >5%
22 | COC(=O)C(NS(=O)(=O)c1ccc(OC)cc1)C(C)C (centres unmarked) [I.37-75] | >5 |  |  | 
23 | COC(=O)C(Cc1cccnc1)NS(=O)(=O)c1ccc(OC)cc1 (centres unmarked) [I.37-82] | >5 |  | >5 | 
24 | C#CCC(NS(=O)(=O)c1ccc(OC)cc1)C(=O)OC (centres unmarked) [I.37-86] |  | >5 |  | EF (ZEAMX): Efficacy = percentage reduction in the intensity of damage (ZEAMX=Zea mays; dosage 250 g/ha): >5%
25 | COC(=O)C(Cc1ccc(F)cc1)NS(=O)(=O)c1ccc(OC)cc1 (centres unmarked) [I.37-90] | >5 |  |  | EF (ZEAMX): Efficacy = percentage reduction in the intensity of damage (ZEAMX=Zea mays; dosage 25 g/ha): >5%
26 | COC(=O)C(COC(C)(C)C)NS(=O)(=O)c1ccc(OC)cc1 (centres unmarked) [I.37-91] | >5 |  |  | EF (ZEAMX): Efficacy = percentage reduction in the intensity of damage (ZEAMX=Zea mays; dosage 25 g/ha): >5%
27 | CCOC(=O)CC(NS(=O)(=O)c1c(C)cccc1C)C(C)C (centres unmarked) [I.52-28] |  |  |  | EF (BRSNS): Efficacy = percentage reduction in the intensity of damage (BRSNS=Brassica napus; dosage 25 g/ha): >5%
